Experimental data from patent publication US20020137929A1, “1 - (3-heterocyclylphenyl) isothiourea, -isourea, -guanidine and -amidine herbicidal agents” (Intellectual Property Department, BASF Aktiengesellschaft, priority 1998, published 2002).

Columns and labels:
AMBEL (Ragweed, Common) = test: Preemergence herbicidal evaluation; format: in vivo, Ambrosia artemisifolia; conditions: rated 4-5 weeks after treatment; for AMBEL rating: preemergence, 0-9 scale
How it was run: (§1)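 Rating at 4–5 wk post-spray on a 0–9 visual scale vs control. Application: aqueous acetone, ~0.0156–0.500 kg/ha, to soil surface after seeding, preemergence.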

ORYSAT (Rice, Tebonnet) = test: Postemergence herbicidal evaluation; format: in vivo, Oryza sativa, (L.) Tebonnet; conditions: for ORYSAT herbicidal rating: postemergence
How it was run: (§2)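 Compound is applied as a foliar spray to seedlings about two weeks old, formulated in equal parts acetone and water with 0.5% TWEEN 20 and delivered at 40 psi to give about 0.0156–0.500 kg per hectare. Injury is rated visually 0–9 after four to five weeks.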

GALAP (Galium) = test: Preemergence herbicidal evaluation; format: in vivo, Galium aparine; conditions: rated 4-5 weeks after treatment; for GALAP rating: preemergence, 0-9 scale
How it was run: as §1

CYPSE (Flatsedge) = test: Postemergence weed control under flooded paddy conditions; format: in vivo, Cyperus serotinus; conditions: postemergence weeds
How it was run: (§3)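 Containers holding 3–5 cm weeds and rice at 1.5–2.5 leaves are flooded to 1.5–3 cm above soil. Compound in 50/50 v/v aqueous/acetone is then added directly to the water, about 0.0313–0.500 kg/ha. Plants are kept in the greenhouse and rated 0–9 visually at 3–4 weeks.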

ABUTH (Velvetleaf) = test: Postemergence herbicidal evaluation; format: in vivo, Abutilon theophrasti; conditions: for ABUTH herbicidal rating: postemergence
How it was run: as §2

[1] = system: CHEAL (Lambsquarters, Common); test: Postemergence herbicidal evaluation; format: in vivo, Chenopodium album; conditions: for CHEAL herbicidal rating: postemergence
How it was run: as §2

SETVI (Foxtail, Green) [2] = test: Preemergence herbicidal evaluation; format: in vivo, Setaria viridis; conditions: rated 4-5 weeks after treatment; for SETVI rating: preemergence, 0-9 scale
How it was run: as §1

[3] = system: ECHORC (Watergrass (Calif.)); test: Postemergence weed control under flooded paddy conditions; format: in vivo, Echinochloa oryzoides; conditions: postemergence weeds
How it was run: as §3

[4] = system: GLXMAW (Soybean, Williams); test: Postemergence herbicidal evaluation; format: in vivo, Glycine max, (L.) Merr. cv Williams; conditions: for GLXMAW herbicidal rating: postemergence
How it was run: as §2

[5] = system: TRZAWR (Wheat, Winter, cv Riband); test: Postemergence herbicidal evaluation; format: in vivo, Triticum aestivum; conditions: for TRZAWR herbicidal rating: postemergence
How it was run: as §2

SETVI (Foxtail, Green) [6] = test: Postemergence herbicidal evaluation; format: in vivo, Setaria viridis; conditions: for SETVI herbicidal rating: postemergence
How it was run: as §2

CYPIR (Rice Flatsedge) = test: Preemergence weed control under flooded paddy conditions; format: in vivo, Cyperus iria; conditions: rated 3-4 weeks after treatment
How it was run: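 Seeds or propagules sown in silt loam kept flooded 1.5-3 cm; compounds in 50/50 acetone/water pipetted into flood water at about 0.0313 to 0.500 kg/ha. Greenhouse; visual 0-9 rating versus untreated control 3-4 weeks after treatment.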

[7] = system: SAGPY (Arrowhead (Pygmaea)); test: Postemergence weed control under flooded paddy conditions; format: in vivo, Sagittaria pygmaea; conditions: postemergence weeds
How it was run: as §3

ZEAMX (Corn, Field) = test: Postemergence herbicidal evaluation; format: in vivo, Zea mays; conditions: for ZEAMX herbicidal rating: postemergence
How it was run: as §2

[8] = Rate 0.0313 kg/ha, rated 3 to 4 weeks after treatment
[9] = Rate 0.0625 kg/ha, rated 3 to 4 weeks after treatment
[10] = Rate 0.1250 kg/ha, rated 3 to 4 weeks after treatment
[11] = Rate 0.2500 kg/ha, rated 3 to 4 weeks after treatment
[12] = rate 0.1250 kg/ha, 3-4 weeks after treatment
[13] = rate 0.2500 kg/ha, 3-4 weeks after treatment

SMILES: COC(=O)CC1SC(=Nc2cc(-n3c(=O)cc(C(F)(F)F)n(C)c3=O)c(F)cc2Cl)N(C)C1=O (stereo not drawn) [Compound 88, Methyl 2-{{2-chloro-5-[3,6-dihydro-3-methyl-2,6-dioxo-4-(trifluoromethyl)-1(2H)-pyrimidinyl]-4-fluorophenyl}imino}-3-methyl-4-oxo-5-thiazolidineacetate]
- AMBEL rating (AMBEL (Ragweed, Common); 0.0156 kg/ha): 0.0
- AMBEL rating (AMBEL (Ragweed, Common); 0.0313 kg/ha): 0.0
- AMBEL rating (AMBEL (Ragweed, Common); 0.0625 kg/ha): 7.0
- AMBEL rating (AMBEL (Ragweed, Common); 0.1250 kg/ha): 9.0
- AMBEL rating (AMBEL (Ragweed, Common); 0.2500 kg/ha): 9.0
- ORYSAT herbicidal rating (ORYSAT (Rice, Tebonnet); rate 0.0158 kg/ha): 2.0
- ORYSAT herbicidal rating (ORYSAT (Rice, Tebonnet); rate 0.0315 kg/ha): 5.5
- ORYSAT herbicidal rating (ORYSAT (Rice, Tebonnet); rate 0.0630 kg/ha): 6.0
- GALAP rating (GALAP (Galium); 0.0156 kg/ha): 0.0
- GALAP rating (GALAP (Galium); 0.0313 kg/ha): 0.0
- GALAP rating (GALAP (Galium); 0.0625 kg/ha): 3.0
- GALAP rating (GALAP (Galium); 0.1250 kg/ha): 3.0
- GALAP rating (GALAP (Galium); 0.2500 kg/ha): 9.0
- Herbicidal rating CYPSE (CYPSE (Flatsedge); [8]): 3.0
- Herbicidal rating CYPSE (CYPSE (Flatsedge); [9]): 5.0
- Herbicidal rating CYPSE (CYPSE (Flatsedge); [10]): 7.0
- Herbicidal rating CYPSE (CYPSE (Flatsedge); [11]): 7.0
- ABUTH herbicidal rating (ABUTH (Velvetleaf); rate 0.0158 kg/ha): 9.0
- ABUTH herbicidal rating (ABUTH (Velvetleaf); rate 0.0315 kg/ha): 9.0
- ABUTH herbicidal rating (ABUTH (Velvetleaf); rate 0.0630 kg/ha): 9.0
- CHEAL herbicidal rating ([1]; rate 0.0158 kg/ha): 9.0
- CHEAL herbicidal rating ([1]; rate 0.0315 kg/ha): 9.0
- CHEAL herbicidal rating ([1]; rate 0.0630 kg/ha): 9.0
- SETVI rating (SETVI (Foxtail, Green) [2]; 0.0156 kg/ha): 0.0
- SETVI rating (SETVI (Foxtail, Green) [2]; 0.0313 kg/ha): 0.0
- SETVI rating (SETVI (Foxtail, Green) [2]; 0.0625 kg/ha): 3.0
- SETVI rating (SETVI (Foxtail, Green) [2]; 0.1250 kg/ha): 7.0
- SETVI rating (SETVI (Foxtail, Green) [2]; 0.2500 kg/ha): 9.0
- Herbicidal rating ECHORC [3, 8]: 6.0
- Herbicidal rating ECHORC [3, 9]: 6.0
- Herbicidal rating ECHORC [3, 10]: 6.0
- Herbicidal rating ECHORC [3, 11]: 7.0
- GLXMAW herbicidal rating ([4]; rate 0.0158 kg/ha): 8.5
- GLXMAW herbicidal rating ([4]; rate 0.0315 kg/ha): 8.5
- GLXMAW herbicidal rating ([4]; rate 0.0630 kg/ha): 9.0
- TRZAWR herbicidal rating ([5]; rate 0.0158 kg/ha): 5.5
- TRZAWR herbicidal rating ([5]; rate 0.0315 kg/ha): 7.0
- TRZAWR herbicidal rating ([5]; rate 0.0630 kg/ha): 7.5
- SETVI herbicidal rating (SETVI (Foxtail, Green) [6]; rate 0.0158 kg/ha): 9.0
- SETVI herbicidal rating (SETVI (Foxtail, Green) [6]; rate 0.0315 kg/ha): 9.0
- SETVI herbicidal rating (SETVI (Foxtail, Green) [6]; rate 0.0630 kg/ha): 9.0
- CYPIR herbicidal effect rating (CYPIR (Rice Flatsedge); 0.0313 kg/ha): 0.0
- CYPIR herbicidal effect rating (CYPIR (Rice Flatsedge); 0.0625 kg/ha): 0.0
- CYPIR herbicidal effect rating (CYPIR (Rice Flatsedge); 0.1250 kg/ha): 0.0
- CYPIR herbicidal effect rating (CYPIR (Rice Flatsedge); 0.2500 kg/ha): 0.0
- Herbicidal rating SAGPY [7, 8]: 6.0
- Herbicidal rating SAGPY [7, 9]: 9.0
- Herbicidal rating SAGPY [7, 10]: 9.0
- Herbicidal rating SAGPY [7, 11]: 9.0
- ZEAMX herbicidal rating (ZEAMX (Corn, Field); rate 0.0158 kg/ha): 7.5
- ZEAMX herbicidal rating (ZEAMX (Corn, Field); rate 0.0315 kg/ha): 8.5
- ZEAMX herbicidal rating (ZEAMX (Corn, Field); rate 0.0630 kg/ha): 9.0

SMILES: CCOP(=O)(CN1C(=O)CSC1=Nc1cc(-n2c(=O)cc(C(F)(F)F)n(C)c2=O)c(F)cc1Cl)OCC [Compound 35, Diethyl {{2-{{2-chloro-5-[3,6-dihydro-3-methyl-2,6-dioxo-4-(trifluoromethyl)-1(2H)-pyrimidinyl]-4-fluorophenyl}imino}-4-oxo-3-thiazolidinyl}methyl}phosphonate]
- Preemergence herbicidal rating AMBEL (AMBEL (Ragweed, Common); rate 0.0625 kg/ha): 0.0
- Preemergence herbicidal rating AMBEL (AMBEL (Ragweed, Common); rate 0.1250 kg/ha): 3.0
- Preemergence herbicidal rating AMBEL (AMBEL (Ragweed, Common); rate 0.2500 kg/ha): 9.0
- Postemergence herbicidal rating ORYSAT (ORYSAT (Rice, Tebonnet); Rate 0.0158 kg/ha): 2.0
- Postemergence herbicidal rating ORYSAT (ORYSAT (Rice, Tebonnet); Rate 0.0315 kg/ha): 3.0
- Postemergence herbicidal rating ORYSAT (ORYSAT (Rice, Tebonnet); Rate 0.0630 kg/ha): 3.5
- Preemergence herbicidal rating GALAP (GALAP (Galium); rate 0.0625 kg/ha): 0.0
- Preemergence herbicidal rating GALAP (GALAP (Galium); rate 0.1250 kg/ha): 0.0
- Preemergence herbicidal rating GALAP (GALAP (Galium); rate 0.2500 kg/ha): 9.0
- Herbicidal rating CYPSE (CYPSE (Flatsedge); [12]): 0.0
- Herbicidal rating CYPSE (CYPSE (Flatsedge); [13]): 0.0
- Postemergence herbicidal rating ABUTH (ABUTH (Velvetleaf); Rate 0.0158 kg/ha): 9.0
- Postemergence herbicidal rating ABUTH (ABUTH (Velvetleaf); Rate 0.0315 kg/ha): 9.0
- Postemergence herbicidal rating ABUTH (ABUTH (Velvetleaf); Rate 0.0630 kg/ha): 9.0
- Postemergence herbicidal rating CHEAL ([1]; Rate 0.0158 kg/ha): 7.0
- Postemergence herbicidal rating CHEAL ([1]; Rate 0.0315 kg/ha): 9.0
- Postemergence herbicidal rating CHEAL ([1]; Rate 0.0630 kg/ha): 9.0
- Preemergence herbicidal rating SETVI (SETVI (Foxtail, Green) [2]; rate 0.0625 kg/ha): 0.0
- Preemergence herbicidal rating SETVI (SETVI (Foxtail, Green) [2]; rate 0.1250 kg/ha): 0.0
- Preemergence herbicidal rating SETVI (SETVI (Foxtail, Green) [2]; rate 0.2500 kg/ha): 9.0
- Herbicidal rating ECHORC [3, 12]: 3.0
- Herbicidal rating ECHORC [3, 13]: 6.0
- Postemergence herbicidal rating GLXMAW ([4]; Rate 0.0158 kg/ha): 7.0
- Postemergence herbicidal rating GLXMAW ([4]; Rate 0.0315 kg/ha): 7.5
- Postemergence herbicidal rating GLXMAW ([4]; Rate 0.0630 kg/ha): 9.0
- Postemergence herbicidal rating TRZAWR ([5]; Rate 0.0158 kg/ha): 2.5
- Postemergence herbicidal rating TRZAWR ([5]; Rate 0.0315 kg/ha): 3.0
- Postemergence herbicidal rating TRZAWR ([5]; Rate 0.0630 kg/ha): 3.5
- Postemergence herbicidal rating SETVI (SETVI (Foxtail, Green) [6]; Rate 0.0158 kg/ha): 0.0
- Postemergence herbicidal rating SETVI (SETVI (Foxtail, Green) [6]; Rate 0.0315 kg/ha): 2.0
- Postemergence herbicidal rating SETVI (SETVI (Foxtail, Green) [6]; Rate 0.0630 kg/ha): 4.0
- Herbicidal rating CYPIR (CYPIR (Rice Flatsedge); 0.1250 kg/ha): 0.0
- Herbicidal rating CYPIR (CYPIR (Rice Flatsedge); 0.2500 kg/ha): 0.0
- Herbicidal rating SAGPY [7, 12]: 0.0
- Herbicidal rating SAGPY [7, 13]: 3.0
- Postemergence herbicidal rating ZEAMX (ZEAMX (Corn, Field); Rate 0.0158 kg/ha): 3.5
- Postemergence herbicidal rating ZEAMX (ZEAMX (Corn, Field); Rate 0.0315 kg/ha): 3.5
- Postemergence herbicidal rating ZEAMX (ZEAMX (Corn, Field); Rate 0.0630 kg/ha): 4.5
